# Experimental data from US10577373B2, “TYK2 inhibitors and uses thereof” (Nimbus Lakshmi, Inc., priority 2017, dated 2020).
# Where two headings read alike, the source gives them in different places.
# Experiments:
# [1] = tested on: IL-12 induced STAT4 phophorylation mediated by Tyk2/JAK2 (heterodimeric complex); experiment: IL-12 Induced pSTAT4 in Human PBMC; assay type: cell-based; conditions: 1.7 ng/mL IL-12
# Text: The IL-12 Induced pSTAT4 assay evaluates the inhibition of IL-12 induced STAT4 phophorylation mediated by Tyk2/JAK2 (heterodimeric complex).
# [2] = tested on: GM-CSF induced STAT5 phosphorylation mediated by the JAK2/JAK2 homdimeric complex; experiment: GM-CSF Induced pSTAT5 in Human PBMC; conditions: GM-CSF 5 ng/mL for 20 minutes, pSTAT5
# Text: Human PBMC are isolated from buffy coat and are stored frozen for assays as needed.
# [3] = Homo sapiens, PBMC, 20 min, read-out: PBMC_GMCSF_pSTAT5 IC50, human PBMC
# [4] = read-out: PBMC_GMCSF_pSTAT5 IC50, human PBMC
Structure (SMILES),IC50 [1] [nM],"IC50 [2, 3] [nM]","IC50 [2, 4] [nM]"
CCn1cc(Cl)cc(Nc2cc(NC)n3ncc(C(N)=O)c3n2)c1=O [I-35],< 100,> 300,
CNc1cc(Nc2cccn([C@@H]3CCC[C@H](OC)C3)c2=O)nc2c(C(=O)NCC(C)(C)CO)cnn12 [I-951],< 100,> 50000,
CNc1cc(Nc2cc(Cl)cn(-c3ccc(C4CC4)nn3)c2=O)nc2c(C(=O)NC3CC3)cnn12 [I-333],< 100,> 12500,
CNc1cc(Nc2cccn(-c3ncc(C)s3)c2=O)nc2c(C(=O)N[C@@H]3CC[C@@H]3O)cnn12 [I-677],< 100,,> 2500
CNc1cc(-c2cn(C(C)C)c3ncccc23)nc2c(C(=O)N[C@H]3CC[C@H]3O)cnn12 [I-637],< 100,> 12500,
CNc1cc(Nc2cccn(C3CCCOC3)c2=O)nc2c(C(=O)NC3CCC3)cnn12 (racemic) [I-324],< 100,> 50000,
CNc1cc(Nc2cccn(-c3ccc(F)cn3)c2=O)nc2c(C(=O)N[C@H]3C[C@H]3F)cnn12 [I-115],< 100,> 12500,
CNc1cc(Nc2cc(Cl)cn(-c3ccn(C)n3)c2=O)nc2c(C(=O)N[C@H]3C[C@H]3F)cnn12 [I-309],< 100,> 12500,
"CNC(=O)c1occc1Nc1cc(NC)n2ncc(C(=O)N[C@@H]3C[C@@H]3F)c2n1 [I-888, N-((1R,2S)-2-fluorocyclopropyl)-7-(methylamino)-5-((2-(methylcarbamoyl)furan-3-yl)amino)pyrazolo[1,5-a]pyrimidine-3-carboxamide]",< 100,> 50000,
CNc1cc(Nc2cccn(-c3nc(C)co3)c2=O)nc2c(C(=O)N[C@H]3C[C@H]3F)cnn12 [I-369],< 100,> 50000,
CNc1cc(Nc2cccn(C[C@@H]3CCCCO3)c2=O)nc2c(C(=O)N[C@@H]3C[C@@H]3F)cnn12 [I-428],< 100,> 50000,
CNc1cc(Nc2cccn(-c3cnn(C)c3)c2=O)nc2c(C(=O)N[C@H]3C[C@H]3F)cnn12 [I-296],< 100,> 50000,
CNc1cc(Nc2cccc3ocnc23)nc2c(C(=O)NCC(C)(C)CO)cnn12 [I-750],< 100,> 2500,
CNc1cc(Nc2cccn(-c3ccccn3)c2=O)nc2c(C(=O)NC3CC3)cnn12 [I-680],< 100,> 12500,
"CNc1cc(Nc2cccnc2OC2CC2)nc2c(C(=O)NC3CC3)cnn12 [I-215, 5-((2-cyclopropoxypyridin-3-yl)amino)-N-cyclopropyl-7-(methylamino) pyrazolo[1,5-a]pyrimidine-3-carboxamide]",< 100,> 50000,
"[2H]C([2H])([2H])Oc1ncccc1Nc1cc(NC)n2ncc(C(=O)N[C@H]3C[C@H](O)C3)c2n1 [I-321, N-((1r,3r)-3-hydroxycyclobutyl)-5-((2-(methoxy-d3)pyridin-3-yl)amino)-7-(methylamino)pyrazolo[1,5-a]pyrimidine-3-carboxamide]",< 100,> 2500,
"CNc1cc(Nc2cccc3ocnc23)nc2c(C(=O)N[C@@H]3CC[C@H]3O)cnn12 (racemic) [I-756, 5-(benzo[d]oxazol-4-ylamino)-N-(2-hydroxycyclobutyl)-7-(methylamino) pyrazolo[1,5-a]pyrimidine-3-carboxamide]",100 to 500,> 50000,
CNc1cc(Nc2cc(F)cnc2OC(C)C)nc2c(C(=O)N[C@H]3C[C@H]3F)cnn12 [I-211],100 to 500,> 50000,
CNc1cc(Nc2cccn(-c3ccc(C)nn3)c2=O)nc2c(C(=O)NC3CCC3)cnn12 [I-141],< 100,> 50000,
CNc1cc(-c2cn(CCN3CCCCC3)c3ncccc23)nc2c(C(=O)N[C@H]3C[C@H]3F)cnn12 [I-585],< 100,> 12500,

Structure (SMILES),IC50 [1] [nM],"IC50 [2, 3] [nM]","IC50 [2, 4] [nM]"
[2H]C([2H])([2H])Oc1ncccc1Nc1cc(NC)n2ncc(C(=O)N[C@@H]3CCC[C@@H](O)C3)c2n1 [I-499],< 100,> 50000,
"CNc1cc(Nc2cccn(-c3nc(C)co3)c2=O)nc2c(C(=O)N[C@@H]3CC[C@H]3O)cnn12 (stereo in doubt) [I-658, N-((1R,2R)-2-hydroxycyclobutyl)-7-(methylamino)-5-((1-(4-methyloxazol-2-yl)-2-oxo-1,2-dihydropyridin-3-yl)amino)pyrazolo[1,5-a]pyrimidine-3-carboxamide]",< 100,> 50000,
CNc1cc(Nc2cccc(C3CCCOC3)n2)nc2c(C(=O)N[C@@H]3C[C@@H]3F)cnn12 (stereo partly shown) [I-522],< 100,> 50000,
CNc1cc(Nc2cccn(-c3ncc(C)s3)c2=O)nc2c(C(=O)N[C@H]3C[C@H]3F)cnn12 [I-262],< 100,> 2500,
"CNc1cc(Nc2cccn(-c3ccccn3)c2=O)nc2c(C(=O)N[C@@H]3CC[C@H]3OC)cnn12 [I-908, N-((1R,2R)-2-methoxycyclobutyl)-7-(methylamino)-5-((2-oxo-2H-[1,2′-bipyridin]-3-yl)amino)pyrazolo[1,5-a]pyrimidine-3-carboxamide]",< 100,,> 50000
CNc1cc(Nc2cccnc2OC(F)F)nc2c(C(=O)NC3CC3)cnn12 [I-154],< 100,> 12500,
CNc1cc(Nc2cccn(-c3ccc(F)cc3)c2=O)nc2c(C(=O)NC3CCC3)cnn12 [I-246],< 100,> 2500,
CNc1cc(Nc2cccn(-c3nn(C)cc3C)c2=O)nc2c(C(=O)N[C@H]3C[C@H]3F)cnn12 [I-405],100 to 500,,
CNC(=O)c1occc1Nc1cc(NC)n2ncc(C(=O)N[C@H]3CC[C@@H]3OC)c2n1 [I-1323],< 100,,
CNc1cc(-c2cn(C3CC3)c3ncccc23)nc2c(C(=O)N[C@H]3CC[C@@H]3OC)cnn12 [I-1325],< 100,,
CNc1cc(Nc2cccn(-c3nn(C)cc3F)c2=O)nc2c(C(=O)N[C@@H]3C[C@@H]3F)cnn12 [I-1321],< 100,,
CNc1cc(Nc2cccn(C3CC(F)(F)C3)c2=O)nc2c(C(=O)N[C@H]3CC[C@@H]3OC)cnn12 [I-1389],< 100,,
CNc1cc(-c2cn([C@@H]3CCCOC3)c3ncccc23)nc2c(C(=O)N[C@H]3CC[C@@H]3OC)cnn12 [I-1364],< 100,,
CNc1cc(Nc2cccn([C@H]3CC[C@](C)(O)CC3)c2=O)nc2c(C(=O)N[C@H]3C[C@H]3F)cnn12 [I-372],< 100,,
CNc1cc(Nc2cccn([C@H]3CC[C@@](C)(O)CC3)c2=O)nc2c(C(=O)N[C@H]3C[C@H]3F)cnn12 [I-370],< 100,,
"CNc1cc(Nc2cccn(-c3ncccc3F)c2=O)nc2c(C(=O)O)cnn12 [I-893, 5-((3′-fluoro-2-oxo-2H-[1,2′-bipyridin]-3-yl)amino)-7-(methylamino) pyrazolo[1,5-a]pyrimidine-3-carboxylic acid]",> 1000,,
CNc1cc(Nc2cccn([C@@H]3CC[C@H]3O)c2=O)nc2c(C(=O)N[C@@H]3CC[C@H]3OC)cnn12 [I-1309],< 100,,
CNc1cc(Nc2cccn(-c3ccccn3)c2=O)nc2c(C(=O)N[C@@H]3C[C@H]3OC)cnn12 [I-1286],< 100,,
CNc1cc(-c2cn([C@@H]3CCN(CCF)C3)c3ncccc23)nc2c(C(=O)N[C@@H]3C[C@@H]3F)cnn12 [I-1366],< 100,,
CNc1cc(Nc2cccn(-c3ccc(F)cc3)c2=O)nc2c(C(N)=O)cnn12 [I-9],100 to 500,,

Structure (SMILES),IC50 [1] [nM],"IC50 [2, 3] [nM]","IC50 [2, 4] [nM]"
CNc1cc(Nc2cccn([C@@H]3CCN(CCF)C3)c2=O)nc2c(C(=O)N[C@@H]3CC[C@H]3OC)cnn12 [I-1333],< 100,,
CNc1cc(-c2cn([C@H]3CCCOC3)c3ncccc23)nc2c(C(=O)N[C@H]3CC[C@@H]3OC)cnn12 [I-1283],< 100,,
CNc1cc(-c2cn(C3CCOCC3)c3ncc(F)cc23)nc2c(C(=O)N[C@H]3CC[C@@H]3O)cnn12 [I-1314],< 100,,
CNc1cc(Nc2cccn([C@H]3CC[C@@H]3O)c2=O)nc2c(C(=O)N[C@H]3CC[C@@H]3OC)cnn12 [I-1385],< 100,,
[2H]C([2H])([2H])Oc1ncccc1Nc1cc(NC)n2ncc(C(=O)N[C@H]3CC[C@@H]3O)c2n1 [I-411],< 100,,
CNc1cc(Nc2cccn([C@H]3CC[C@](C)(O)CC3)c2=O)nc2c(C(=O)NC3CC3)cnn12 [I-371],100 to 500,,
CNc1cc(Nc2cccn([C@@H]3CCC[C@@H](OC)C3)c2=O)nc2c(C(=O)N[C@H]3CC[C@@H]3OC)cnn12 [I-1331],< 100,,
CNc1cc(Nc2cccn([C@H]3CCC[C@H](O)C3)c2=O)nc2c(C(=O)N[C@@H]3CC[C@H]3OC)cnn12 [I-1395],< 100,,
CNc1cc(-c2cn(CCCO)c3ncccc23)nc2c(C(=O)N[C@@H]3CC[C@H]3OC)cnn12 [I-1299],< 100,,
CNc1cc(Nc2cccn([C@H]3[C@@H]4COC[C@@H]43)c2=O)nc2c(C(=O)N[C@@H]3CC[C@H]3OC)cnn12 [I-1354],< 100,,
CNc1cc(Nc2cccn([C@@H]3CCCOC3)c2=O)nc2c(C(=O)NC3CC3)cnn12 [I-351],< 100,,
CNc1cc(Nc2cccn(-c3cnn(C)c3F)c2=O)nc2c(C(=O)N[C@H]3CC[C@@H]3OC)cnn12 [I-1369],< 100,,
CNc1cc(-c2cn([C@H]3CCCOC3)c3ncccc23)nc2c(C(=O)N[C@H]3CC[C@@H]3OC)cnn12 [I-1365],< 100,,
CNc1cc(-c2cn(CCCO)c3ncccc23)nc2c(C(=O)N[C@H]3CC[C@@H]3OC)cnn12 [I-1388],< 100,,
CNc1cc(Nc2cccn([C@@H]3CC[C@@H]3O)c2=O)nc2c(C(=O)N[C@@H]3CC[C@H]3OC)cnn12 [I-1350],< 100,,
CNc1cc(Nc2cccn([C@H]3CCCN(CCF)C3)c2=O)nc2c(C(=O)N[C@@H]3C[C@@H]3F)cnn12 [I-900],< 100,,
CNc1cc(Nc2cccn3ccnc23)nc2c(C(=O)N[C@@H]3CC[C@H]3OC)cnn12 [I-1133],< 100,,
CNc1cc(Nc2cccn([C@H]3CCCC[C@H]3OC)c2=O)nc2c(C(=O)N[C@H]3CC[C@@H]3OC)cnn12 [I-1377],< 100,,
